The record followed here is US20260034103A1, “COMPOSITIONS AND METHODS FOR IMPROVING MEMORY AND COGNITION” (priority 2022, published 2026).

The subject of experiment [1] is rats. The experiment can be described thus: Freely behaving rodent model of long-term potentiation (LTP). Format: in vivo, rat. Particulars: 0.01 and 0.1 mg/kg IV. The procedure:
Amplitudes of fEPSP are normalized to baseline and plotted against time.
A freely behaving rodent model of long-term potentiation (LTP), a frequently studied form of synaptic plasticity, was employed. LTP is a persistent increase in the strength of synaptic connections between neurons, and is a cellular mechanism widely considered to underlie the processes of learning and memory. At 0.01 and 0.1 mg/kg IV compound 1 increased LTP compared to vehicle controls (FIGS. 10-11).

For experiment [2], the system named is Sprague Dawley rat hippocampal slices. The experiment is described as follows: Ex vivo electrophysiology in rat hippocampal slices: mEPSP frequency. It counts as cell-based. The text has this:
(§1) The effect of compound 1 to enhance mEPSPs may be dependent on the influx of extracellular calcium.

In experiment [3] the test system is Wistar rats. The experiment can be described thus: Novel object recognition test, subchronic PCP-induced cognitive impairment. It counts as in vivo, rat. The procedure:
The total exploration time of two identical objects in the acquisition trial was measured manually and indicated as the mean±SEM (n=10). No statistical difference was found in the total exploration time among the different groups by one-way ANOVA (P=0.340).
NDI was calculated using the following equation: novel object interaction time/total interaction time×100(%). Data are represented as the mean±SEM (n=10). Significant difference from control group was indicated by ***P<0.001 (Student's t-test). Significant differences from PCP-treated group were indicated by ##P<0.01, #P<0.05 (Dunnett test). Significant difference from PCP-treated group were indicated by ††P<0.01 (Student's t-test).
Exploration time of each object in retention trial was measured manually and presented as the mean±SEM (n=10). Significant differences from familiar object interaction were indicated by ***P<0.001, **P<0.01 (paired t-test).
A novel object recognition test was conducted to investigate the effect of SP-624 on subchronic PCP-induced cognitive impairment in Wistar rats. Clozapine was used as a positive control.

For experiment [4], the system named is Long-Evans rats. The experiment can be described thus: Novel object recognition test, scopolamine-induced cognitive impairment. Format: in vivo, rat. Particulars: 0.1 and 1 mg/kg PO. The procedure:
Total exploration time of two identical objects in the acquisition trial was measured manually and indicated as the mean±SEM (n=8). No statistical difference was found in the total exploration time among the different groups by one-way ANOVA (P=0.115).
NDI was calculated using the following equation: novel object interaction time/total interaction time×100(%). Data are represented as the mean±SEM (n=8). Significant difference from control group was indicated by ***P<0.001 (Student's t-test). Significant differences from scopolamine-treated vehicle group were indicated by ##P<0.01 (Dunnett test). Significant difference from scopolamine-treated vehicle group were indicated by †††P<0.001 (Student's t-test).
Exploration time of each object in retention trial was measured manually and presented as the mean±SEM (n=8). Significant differences from familiar object interaction were indicated by **P<0.01, *P<0.05 (paired t-test).
A novel object recognition test (which evaluates visual learning and memory) was conducted to investigate the effect of compound 1 on scopolamine-induced cognitive impairment in Long-Evans rats. Donepezil was used as a positive control. Scopolamine at 0.1 mg/kg SC reduced the novelty discrimination index (NDI) a measure of cognitive function (FIGS. 4-6).

Experiment [5] concerns Sprague Dawley rat hippocampal slices. The experiment is described as follows: Ex vivo electrophysiology: paired-pulse ratio (short-term plasticity), CA1 with Schaffer collateral stimulation. Format: cell-based. The settings on record: 10 nM and 100 nM; interstimulus intervals 50-400 ms; vs vehicle 0.01% DMSO. The method, then:
Response is Stratum radiatum of area CA1 of the hippocampus with Schaffer collateral stimulation. Statistical differences correspond to the ones observed between Compound 1 10 nM and Vehicle groups.
Statistical differences correspond to the ones observed between Compound 1 100 nM and Vehicle groups.
as §1

Take `COC1=CC(=O)C[C@@H](C)[C@]12Oc1c(Cl)c(-c3nnc(C)o3)cc(OC)c1C2=O` [Compound 1, (2S,6′R)-7-Chloro-2′,4-dimethoxy-6′-methyl-6-(5-methyl-1,3,4-oxadiazol-2-yl)-3H-spiro[1-benzofuran-2,1′-cyclohex[2]ene]-3,4′-dione]: the “LTP compared to vehicle controls” value in experiment [1] is recorded as “increased LTP”. Further, the “frequency of miniature excitatory post-synaptic potentials (mEPSPs) in the hippocampus” value in experiment [2] is “increase the frequency”. For the same compound, the “sub-chronic PCP-induced cognitive deficits in the NDI” value was “not” in experiment [3] (0.01 mg/kg); “significantly attenuated” in experiment [3] (0.1 and 1 mg/kg). The “novelty discrimination index (NDI) reduced by scopolamine” value in experiment [4] was “significantly improved”. The “short-term plasticity (paired-pulse ratio)” value in experiment [5] is listed as “enhanced short-term plasticity”.
